# Laboratory results as given in patent US20100041089A1, “IMPROVED METHOD FOR DETECTING CHEMICAL […]” (priority 2006, published 2010).
# System: yeast genes (expressed mRNA)
# Test: DNA chip measurement of expressed mRNA of yeast genes after culture with a toxic chemical substance
# Type: cell-based, Saccharomyces cerevisiae S288C
# Procedure: Yeast (Saccharomyces cerevisiae S288C (a SUC2mal mel gap2 CUP1)) were cultured at 25° C. on YPD medium (yeast extract 1%, polypeptone 2%, glucose 2%). One of toxic chemical substances was added to the cell at logarithmic growth phase, and the cell was further cultured for two hours. Cell was cultured without any chemical substance in the same condition, and was used as a control. Concentrations of the chemical substances were defined to inhibit the growth of the yeast but not lead to death.
# After the completion of cultivation, the culture was centrifuged to collect the cells. To the cells, sodium acetate buffer (50 mM sodium acetate, 10 mM EDTA, 1% SDS) was added, and the mixture was shaken at 65° C. for five minutes, followed by returning to room temperature, and obtaining the supernatant, which procedure was repeated two times. To the supernatant, ½ amount of a solution of phenol/chloroform (1:1) was added, and the mixture was centrifuged to give a supernatant, an equal amount of chloroform was added, and the mixture was centrifuged to give a supernatant. To the supernatant, an equal amount of isopropanol containing 0.3 M sodium acetate was added, and the mixture was allowed to stand at room temperature for 30 minutes, after which the mixture was centrifuged to give sediment of the whole RNAs. Seventy % ethanol was added to the sediment, and the mixture was again centrifuged to give sediment, which was then dried and dissolved in water. mRNA was isolated from the whole RNAs as followings. In view of the fact that a poly A chain is attached to the 3′ terminus of mRNA, a polynucleotide having a poly T structure which was immobilized on the surface of latex beads was used to trap the mRNA, and then the mRNA was washed and eluted with spine column (Oligotex-dT30<Super>mRNA Purification Kit, Takara). Reverse transcription of the mRNA was conducted with a reverse transcriptase (Super Script II Reverse Transcriptase; catalogue No. 18064-014, GibcoBRL) using fluorescence-labeled nucleotides to give cDNAs that were introduced with Cy3-dUTP or Cy5-dUTP during the reverse transcription.
# The labeled cDNAs were dissolved in TE buffer (10 mM Tris-HCl/1 mM EDTA, pH 8.0), and the solution was dropped on the DNA chip containing the whole genes of yeast (DNA Chip Research Inc. Japan) so that the cDNAs were hybridized on the DNA chip at 65° C. for over 12 hours. The fluoresces intensity of the DNA chip was read with a scanner, and the ratio relative to the fluorescence intensity resulting from the absence of chemical substance was estimated as the following, which is shown in Tables 1 to 9.
# In the Tables, “Intensity” indicated in the rightmost column is a value of the level of expressed mRNA of each gene in control cells as divided by the average level of the expressions of the whole genes. A gene of which mRNA level is lower in control, and is higher in cases of addition of chemical substance, is especially useful in the detection of toxic substances.
# Here, when a ratio of an amount of mRNA expressed in the presence of the chemical substance to an amount of mRNA expressed in the absence of the chemical substance is two or more, then it is considered significant.
structure (smiles),measurement,setting,value
"CCCCC[C@H](O)CC(=O)CCc1ccc(O)c(OC)c1 [(13), Gingerol]",The level of expressed mRNA in the presence of chemical substance/The level of expressed mRNA in the absence of chemical substance,"yeast gene YFR017C, cultured two hours with substance",1.7
same,level of expressed mRNA in the presence of chemical substance / level in the absence of chemical substance,"yeast gene YFR026C, cultured two hours with the chemical substance",1.1
same,The level of expressed mRNA in the presence of chemical substance/The level of expressed mRNA in the absence of chemical substance,"yeast gene YFR044C, cultured two hours with substance",3.1
same,The level of expressed mRNA in the presence of chemical substance/The level of expressed mRNA in the absence of chemical substance,"yeast gene YGL037C, cultured two hours with substance",2.3
same,level of expressed mRNA in the presence of chemical substance / level in the absence of chemical substance,"yeast gene YGL088W, cultured two hours with the chemical substance",0.7
same,The level of expressed mRNA in the presence of chemical substance/The level of expressed mRNA in the absence of chemical substance,"yeast gene YGL187C, mitochondria-located protein gene, cultured two hours with substance",0.7
same,The level of expressed mRNA in the presence of chemical substance/The level of expressed mRNA in the absence of chemical substance,"yeast gene YGL191W, mitochondria-located protein gene, cultured two hours with substance",1.1
same,level of expressed mRNA in the presence of chemical substance / level in the absence of chemical substance,"yeast gene YGR038W, cultured two hours with the chemical substance",1.2
same,The level of expressed mRNA in the presence of chemical substance/The level of expressed mRNA in the absence of chemical substance,"yeast gene YGR043C, cultured for two hours with substance",6.9
same,The level of expressed mRNA in the presence of chemical substance/The level of expressed mRNA in the absence of chemical substance,"yeast gene YGR101W, cultured two hours with substance",2.4
same,The level of expressed mRNA in the presence of chemical substance/The level of expressed mRNA in the absence of chemical substance,"yeast gene YGR110W, cultured two hours with substance",3.6
same,level of expressed mRNA in the presence of chemical substance / level in the absence of chemical substance,"yeast gene YGR139W, cultured two hours with the chemical substance",0.4
same,The level of expressed mRNA in the presence of chemical substance/The level of expressed mRNA in the absence of chemical substance,"yeast gene YGR146C, cultured two hours with substance",1.7
same,The level of expressed mRNA in the presence of chemical substance/The level of expressed mRNA in the absence of chemical substance,"yeast gene YGR154C, cultured two hours with substance",2.5
same,The level of expressed mRNA in the presence of chemical substance/The level of expressed mRNA in the absence of chemical substance,"yeast gene YGR161C, cultured two hours with substance",2.8
same,The level of expressed mRNA in the presence of chemical substance/The level of expressed mRNA in the absence of chemical substance,"yeast gene YGR231C, DNA repair protein genes, cultured two hours with substance",3.9
same,level of expressed mRNA in the presence of chemical substance / level in the absence of chemical substance,"yeast gene YGR243W, cultured two hours with the chemical substance",1.1
same,The level of expressed mRNA in the presence of chemical substance/The level of expressed mRNA in the absence of chemical substance,"yeast gene YGR256W, cultured for two hours with substance",3.9
same,The level of expressed mRNA in the presence of chemical substance/The level of expressed mRNA in the absence of chemical substance,"yeast gene YGR268C, cultured two hours with substance",2.8
same,level of expressed mRNA in the presence of chemical substance / level in the absence of chemical substance,"yeast gene YGR293C, cultured two hours with the chemical substance",0.7
same,level of expressed mRNA in the presence of chemical substance / level in the absence of chemical substance,"yeast gene YHL006C, cultured two hours with the chemical substance",1.1
same,level of expressed mRNA in the presence of chemical substance / level in the absence of chemical substance,"yeast gene YHR095W, cultured two hours with the chemical substance",0.7
same,level of expressed mRNA in the presence of chemical substance / level in the absence of chemical substance,"yeast gene YHR105W, cultured two hours with the chemical substance",1.4
same,level of expressed mRNA in the presence of chemical substance / level in the absence of chemical substance,"yeast gene YHR181W, cultured two hours with the chemical substance",0.7
same,The level of expressed mRNA in the presence of chemical substance/The level of expressed mRNA in the absence of chemical substance,"yeast gene YHR199C, cultured two hours with substance",2.1
same,The level of expressed mRNA in the presence of chemical substance/The level of expressed mRNA in the absence of chemical substance,"yeast gene YIL087C, cultured two hours with substance",2.4
same,The level of expressed mRNA in the presence of chemical substance/The level of expressed mRNA in the absence of chemical substance,"yeast gene YIL122W, cultured two hours with the chemical substance",0.7
same,level of expressed mRNA in the presence of chemical substance / level in the absence of chemical substance,"yeast gene YIL127C, cultured two hours with the chemical substance",0.4
same,level of expressed mRNA in the presence of chemical substance / level in the absence of chemical substance,"yeast gene YJL017W, cultured two hours with the chemical substance",1.5
same,level of expressed mRNA in the presence of chemical substance / level in the absence of chemical substance,"yeast gene YJL037W, cultured two hours with the chemical substance",1.1
same,The level of expressed mRNA in the presence of chemical substance/The level of expressed mRNA in the absence of chemical substance,"yeast gene YJL057C, cultured two hours with substance",2.5
same,The level of expressed mRNA in the presence of chemical substance/The level of expressed mRNA in the absence of chemical substance,"yeast gene YJL082W, cultured two hours with substance",2.1
same,level of expressed mRNA in the presence of chemical substance / level in the absence of chemical substance,"yeast gene YJL097W, cultured two hours with the chemical substance",0.7
same,The level of expressed mRNA in the presence of chemical substance/The level of expressed mRNA in the absence of chemical substance,"yeast gene YJL144W, cultured two hours with substance",3.9
same,The level of expressed mRNA in the presence of chemical substance/The level of expressed mRNA in the absence of chemical substance,"yeast gene YJL151C, cultured two hours with substance",2.4
same,The level of expressed mRNA in the presence of chemical substance/The level of expressed mRNA in the absence of chemical substance,"yeast gene YJL161W, cultured two hours with substance",2.5
same,level of expressed mRNA in the presence of chemical substance / level in the absence of chemical substance,"yeast gene YJR030C, cultured two hours with the chemical substance",0.7
same,The level of expressed mRNA in the presence of chemical substance/The level of expressed mRNA in the absence of chemical substance,"yeast gene YJR046W, DNA repair protein genes, cultured two hours with substance",3.0
same,The level of expressed mRNA in the presence of chemical substance/The level of expressed mRNA in the absence of chemical substance,"yeast gene YJR074W, cultured two hours with substance",2.8
same,The level of expressed mRNA in the presence of chemical substance/The level of expressed mRNA in the absence of chemical substance,"yeast gene YJR121W, mitochondria-located protein gene, cultured two hours with substance",1.0
same,The level of expressed mRNA in the presence of chemical substance/The level of expressed mRNA in the absence of chemical substance,yeast gene YJR123W,0.1
same,level of expressed mRNA in the presence of chemical substance / level in the absence of chemical substance,"yeast gene YKL051W, cultured two hours with the chemical substance",1.2
